Measurements: patent US12404239B2, “Modulators of BCL6 as ligand directed degraders” (Celgene Corporation, priority 2022, dated 2025)

Target: T1, BCL6 (Homo sapiens, UniProt P41182)
T1 construct: HiBiT-tag knocked into endogenous BCL6 locus using CRISPR; endogenous in cells; host or cells: DHL-4_BCL6_HiBiT cells (CRISPR knock-in)
Test: BCL6_HiBiT degradation assay (2 h)
Format: cell-based
Conditions: DHL-4_BCL6_HiBiT cells; for Percent BCL6 remaining at maximal degradation (Ycon): read-out: YCon (% remaining maximal effect)
Summary of the method: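 DHL-4 cells carrying CRISPR HiBiT knock-in at endogenous BCL6, treated 2 h at 37 °C with 10-point 3-fold dilutions from 1-10 μM. BCL6 level read by Nano-Glo HiBiT lytic luminescence normalized to DMSO; four-parameter fit gives degradation EC50 and Yconstant (% remaining at maximal effect).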

| SMILES | Percent BCL6 remaining at maximal degradation (Ycon) | YCon (% remaining maximal effect) |
| --- | --- | --- |
| CN1C(=O)Cc2cc(Nc3nc(N(C)C4CCN(c5ccc6c(C7CCC(=O)NC7=O)nn(C)c6c5)C(=O)C4)ncc3Cl)ccc21 (stereo not shown) [Example 127, 3-(6-(4-((5-chloro-4-((1-methyl-2-oxoindolin-5-yl)amino)pyrimidin-2-yl)(methyl)amino)-2-oxopiperidin-1-yl)-1-methyl-1H-indazol-3-yl)piperidine-2,6-dione] | < 20% |  |
| CO[C@@H]1CN(c2ncc(Cl)c(Nc3ccc4c(c3)CC(=O)N4C)n2)CC[C@H]1Nc1ccc2c(C3CCC(=O)NC3=O)nn(C)c2c1 (stereo partly drawn) [Example 146, 3-(6-(((3R,4R)-1-(5-chloro-4-((1-methyl-2-oxoindolin-5-yl)amino)pyrimidin-2-yl)-3-methoxypiperidin-4-yl)amino)-1-methyl-1H-indazol-3-yl)piperidine-2,6-dione] | 20 to 60% |  |
| CN1C(=O)Cc2cc(Nc3nc(N4CCC(Nc5ccc6c(C7CCC(=O)NC7=O)nn(C)c6c5)CC4)ncc3Cl)ccc21 (single isomer, unassigned) [Example 54] |  | (>60%) |
| CN1C(=O)Cc2cc(Nc3nc(N(C)[C@H]4CCN(c5ccc6c(C7CCC(=O)NC7=O)nn(C)c6c5)C(=O)C4)ncc3Cl)ccc21 (single isomer, unassigned) [Example 128] | 20 to 60% |  |
| COCCN1C(=O)Cc2cc(Nc3nc(N4CC[C@@H](Nc5ccc6c([C@H]7CCC(=O)NC7=O)nn(C)c6c5)[C@H](C)C4)ncc3Cl)ccc21 (single isomer, unassigned) [Example 76] | < 20% |  |
| C[C@@H]1CN(c2ncc(Cl)c(Nc3ccc4c(c3)N(CCC(C)(C)O)C(=O)C4)n2)CC[C@H]1Nc1ccc2c(C3CCC(=O)NC3=O)nn(C)c2c1 (stereo partly drawn) [Example 120, 3-(6-(((3R,4R)-1-(5-chloro-4-((1-(3-hydroxy-3-methylbutyl)-2-oxoindolin-6-yl)amino)pyrimidin-2-yl)-3-methylpiperidin-4-yl)amino)-1-methyl-1H-indazol-3-yl)piperidine-2,6-dione] | < 20% |  |
| CO[C@@H]1CN(c2nc(F)c(Cl)c(Nc3ccc4c(c3)CC(=O)N4C)n2)CC[C@H]1Nc1ccc2c(C3(C)CCC(=O)NC3=O)nn(C)c2c1 (stereo partly drawn) [Example 159, 3-(6-(((3R,4R)-1-(5-chloro-4-fluoro-6-((1-methyl-2-oxoindolin-5-yl)amino)pyrimidin-2-yl)-3-methoxypiperidin-4-yl)amino)-1-methyl-1H-indazol-3-yl)-3-methylpiperidine-2,6-dione] | 20 to 60% |  |
| COCCN1C(=O)Cc2cc(Nc3nc(N4CC[C@@H](Nc5ccc6c([C@@H]7CCC(=O)NC7=O)nn(C)c6c5)[C@H](C)C4)ncc3Cl)ccc21 (single isomer, unassigned) [Example 77] | < 20% |  |
| CCN1C(=O)Cc2cc(Nc3nc(N4CCC(Nc5ccc6c([C@@H]7CCC(=O)NC7=O)nn(C)c6c5)CC4)ncc3Cl)ccc21 (single isomer, unassigned) [Example 91] | > 60% |  |
| C[C@@H]1C[C@H](N(C)c2ncc(Cl)c(Nc3ccc4c(c3)CC(=O)N4C)n2)CCN1c1ccc2c(C3CCC(=O)NC3=O)nn(C)c2c1 (stereo partly drawn) [Example 4, 3-(6-((2R,4R)-4-((5-chloro-4-((1-methyl-2-oxoindolin-5-yl)amino)pyrimidin-2-yl)(methyl)amino)-2-methylpiperidin-1-yl)-1-methyl-1H-indazol-3-yl)piperidine-2,6-dione] | < 20% |  |
| Cn1nc(C2CCC(=O)NC2=O)c2ccc(C3CCN(c4ncc(Cl)c(Nc5ccc6c(c5)CC(=O)N6)n4)CC3)cc21 (stereo not shown) [Example 124, 3-[6-[1-[5-chloro-4-[(2-oxoindolin-5-yl)amino]pyrimidin-2-yl]-4-piperidyl]-1-methyl-indazol-3-yl]piperidine-2,6-dione] | > 60% |  |
| CN1C(=O)Cc2cc(Nc3nc(N(C)C4CCN(c5cnc6c(C7CCC(=O)NC7=O)nn(C)c6c5)CC4)ncc3Cl)ccc21 (stereo not shown) [Example 59, 3-(6-(4-((5-chloro-4-((1-methyl-2-oxoindolin-5-yl)amino)pyrimidin-2-yl)(methyl)amino)piperidin-1-yl)-1-methyl-1H-pyrazolo[4,3-b]pyridin-3-yl)piperidine-2,6-dione] | > 60% |  |
| C[C@H]1C[C@H](N(C)c2ccc3c(C4CCC(=O)NC4=O)nn(C)c3c2)CCN1c1ncc(Cl)c(Nc2ccc3c(c2)CC(=O)N3C)n1 (stereo partly drawn) [Example 84, 3-(6-(((2S,4R)-1-(5-chloro-4-((1-methyl-2-oxoindolin-5-yl)amino)pyrimidin-2-yl)-2-methylpiperidin-4-yl)(methyl)amino)-1-methyl-1H-indazol-3-yl)piperidine-2,6-dione] | > 60% |  |
| C[C@@H]1CN(c2ncc(Cl)c(Nc3ccc4c(c3)CC(=O)N4C)n2)CC[C@H]1Nc1ccc2c(N3CCC(=O)NC3=O)nn(C)c2c1 [Example 141, 1-(6-(((3R,4R)-1-(5-chloro-4-((1-methyl-2-oxoindolin-5-yl)amino)pyrimidin-2-yl)-3-methylpiperidin-4-yl)amino)-1-methyl-1H-indazol-3-yl)dihydropyrimidine-2,4(1H,3H)-dione] | < 20% |  |
| CN1C(=O)Cc2cc(Nc3nc(N4CC[C@@H](Nc5ccc6c(C7CCC(=O)NC7=O)nn(C)c6c5)[C@H](F)C4)ncc3Cl)ccc21 (stereo partly drawn) [Example 45, 3-(6-(((3R,4R)-1-(5-chloro-4-((1-methyl-2-oxoindolin-5-yl)amino)pyrimidin-2-yl)-3-fluoropiperidin-4-yl)amino)-1-methyl-1H-indazol-3-yl)piperidine-2,6-dione] | 20 to 60% |  |
| C[C@@H]1CN(c2ncc(Cl)c(Nc3cc(F)c4c(c3)CC(=O)N4C)n2)CC[C@H]1Nc1ccc2c(C3CCC(=O)NC3=O)nn(C)c2c1 (stereo partly drawn) [Example 95, 3-(6-(((3R,4R)-1-(5-chloro-4-((7-fluoro-1-methyl-2-oxoindolin-5-yl)amino)pyrimidin-2-yl)-3-methylpiperidin-4-yl)amino)-1-methyl-1H-indazol-3-yl)piperidine-2,6-dione] | < 20% |  |
| CO[C@@H]1CN(c2ncc(Cl)c(Nc3ccc4c(c3)CC(=O)N4C)n2)CC[C@H]1Nc1ccc2c(N3CCC(=O)NC3=O)nn(C)c2c1 [Example 156, 1-(6-(((3R,4R)-1-(5-chloro-4-((1-methyl-2-oxoindolin-5-yl)amino)pyrimidin-2-yl)-3-methoxypiperidin-4-yl)amino)-1-methyl-1H-indazol-3-yl) dihydropyrimidine-2,4(1H,3H)-dione] | 20 to 60% |  |
| CN1C(=O)Cc2cc(Nc3nc(N4CCC(c5ccc6c(N7CCC(=O)NC7=O)nn(C)c6c5)CC4)ncc3Cl)ccc21 [Example 134, 1-(6-(1-(5-chloro-4-((1-methyl-2-oxoindolin-5-yl)amino)pyrimidin-2-yl)piperidin-4-yl)-1-methyl-1H-indazol-3-yl)dihydropyrimidine-2,4(1H,3H)-dione] | > 60% |  |
| C[C@@H]1CN(c2ncc(Cl)c(Nc3ccc4c(c3)CC(=O)N4C)n2)CC[C@H]1Nc1ccc2c(-n3ccc(=O)[nH]c3=O)nn(C)c2c1 [Example 139, 1-(6-(((3R,4R)-1-(5-chloro-4-((1-methyl-2-oxoindolin-5-yl)amino)pyrimidin-2-yl)-3-methylpiperidin-4-yl)amino)-1-methyl-1H-indazol-3-yl)pyrimidine-2,4(1H,3H)-dione] | < 20% |  |
| C[C@H]1C(=O)N(c2ccc3c(C4CCC(=O)NC4=O)nn(C)c3c2)CC[C@@H]1N(C)c1ncc(Cl)c(Nc2ccc3c(c2)CC(=O)N3C)n1 (single isomer, unassigned) [Example 130] | > 60% |  |
| C[C@@H]1CN(c2ncc(C#N)c(Nc3cc(F)c4c(c3)CC(=O)N4C)n2)CC[C@H]1Nc1ccc2c(C3CCC(=O)NC3=O)nn(C)c2c1 (stereo partly drawn) [Example 116, 2-((3R,4R)-4-((3-(2,6-dioxopiperidin-3-yl)-1-methyl-1H-indazol-6-yl)amino)-3-methylpiperidin-1-yl)-4-((7-fluoro-1-methyl-2-oxoindolin-5-yl)amino)pyrimidine-5-carbonitrile] | < 20% |  |
| C[C@@H]1CN(c2ncc(C#N)c(Nc3ccc4c(c3F)CC(=O)N4C)n2)CC[C@H]1Nc1ccc2c(C3CCC(=O)NC3=O)nn(C)c2c1 (stereo partly drawn) [Example 118, 2-((3R,4R)-4-((3-(2,6-dioxopiperidin-3-yl)-1-methyl-1H-indazol-6-yl)amino)-3-methylpiperidin-1-yl)-4-((4-fluoro-1-methyl-2-oxoindolin-5-yl)amino)pyrimidine-5-carbonitrile] | < 20% |  |
| CC1CN(c2ncc(Cl)c(Nc3ccc4c(c3)CC(=O)N4C)n2)CCCC1Nc1ccc2c(C3CCC(=O)NC3=O)nn(C)c2c1 (single isomer, unassigned) [Example 50, 3-(6-((1-(5-chloro-4-((1-methyl-2-oxoindolin-5-yl)amino)pyrimidin-2-yl)-3-methylazepan-4-yl)amino)-1-methyl-1H-indazol-3-yl)piperidine-2,6-dione] |  | (>60%) |
| CN1C(=O)Cc2cc(Nc3nc(N4CCCC(Nc5ccc6c(C7CCC(=O)NC7=O)nn(C)c6c5)CC4)ncc3Cl)ccc21 (stereo not shown) [Example 31, 3-(6-((1-(5-chloro-4-((1-methyl-2-oxoindolin-5-yl)amino)pyrimidin-2-yl)azepan-4-yl)amino)-1-methyl-1H-indazol-3-yl)piperidine-2,6-dione] | > 60% |  |
| CN(c1ncc(Cl)c(Nc2ccc3c(c2)N(CCC(C)(C)O)C(=O)C3)n1)C1CCN(c2ccc3c(C4CCC(=O)NC4=O)nn(C)c3c2)CC1 (stereo not shown) [Example 11, 3-(6-(4-((5-chloro-4-((1-(3-hydroxy-3-methylbutyl)-2-oxoindolin-6-yl)amino)pyrimidin-2-yl)(methyl)amino)piperidin-1-yl)-1-methyl-1H-indazol-3-yl)piperidine-2,6-dione] | > 60% |  |
